Source: PMC7587356, “High-Throughput Screening for Inhibitors of the SARS-CoV-2 Protease Using a FRET-Biosensor” (Molecules, 2020)
Read-outs that look alike come from different tables or passages of the source.

Biological target: SARS-CoV-2 3CLpro (Severe acute respiratory syndrome coronavirus 2, UniProt P0DTD1)
Test: biochemical
Assay type: biochemical
Parameters: Replicate_1 / Replicate_2 / mean / mean (LOPAC_screen_w_protease): unit not given here
Conditions: for inhibition at 5 µM: 4 h; for mean (LOPAC screen with protease) / Replicate_1 (LOPAC screen with protease) / Replicate_2 (LOPAC screen with protease): primary screen at 5 µM
[1] = sheet LOPAC_screen_w_protease, primary screen with protease, mean of two replicates
[2] = sheet LOPAC_screen_w_protease, primary screen with protease, replicate 1
[3] = sheet LOPAC_screen_w_protease, primary screen with protease, replicate 2
[4] = sheet LOPAC_screen_w_protease, primary screen with protease, 5 µM, mean of two replicates
[5] = sheet LOPAC_screen_w_protease, primary screen with protease, 5 µM, replicate 1
[6] = sheet LOPAC_screen_w_protease, primary screen with protease, 5 µM, replicate 2
[7] = sheet LOPAC_screen_w_protease, primary screen with protease, compound at 5 µM, mean of two replicates
[8] = sheet LOPAC_screen_w_protease, primary screen with protease, compound at 5 µM, replicate 1
[9] = sheet LOPAC_screen_w_protease, primary screen with protease, compound at 5 µM, replicate 2
[10] = sheet LOPAC_screen_w_protease, mean of two replicates
[11] = sheet LOPAC_screen_w_protease, replicate 1
[12] = sheet LOPAC_screen_w_protease, replicate 2

`C[C@H](Cc1ccc(OCC(=O)[O-])cc1)NC[C@H](O)c1cccc(Cl)c1.[Na+]` [BRL 37344 sodium] was tested, and the mean [1] was 2.226, the Replicate_1 [2] was 0.8642 and the Replicate_2 [3] was 3.588.
Work on `O=c1c(-c2ccc(O)cc2)coc2cc(O)cc(O)c12` [Genistein] yielded an inhibition at 5 µM (read-out: Replicate_1 (LOPAC_screen_w_protease)) of 2.15% and an inhibition at 5 µM (read-out: Replicate_2 (LOPAC_screen_w_protease)) of 0.656%.
For `OC[C@H]1O[C@@H](n2cnc3c(Nc4ccccc4)ncnc32)[C@H](O)[C@@H]1O` [N6-Phenyladenosine], the inhibition at 5 µM (LOPAC1280 primary screen with protease, 5 µM compound, replicate 1, read-out: Replicate_1 (LOPAC_screen_w_protease)) was 2.83%, the inhibition at 5 µM (LOPAC1280 primary screen with protease, 5 µM compound, replicate 2, read-out: Replicate_2 (LOPAC_screen_w_protease)) was 0.0632% and the “mean (LOPAC_screen_w_protease)” value (LOPAC1280 primary screen with protease, 5 µM compound, mean of two replicates) was 1.447.
Work on `C#CCN1C(C)=C(C(=O)OC)C(c2cccc([N+](=O)[O-])c2)C(C(=O)OCC)=C1C` (centres unmarked) [MRS 1845] yielded a mean (sheet LOPAC_screen_w_protease, LOPAC1280 primary screen with protease, 5 µM compound, mean of the two replicates) of 4.379, a Replicate_1 (sheet LOPAC_screen_w_protease, LOPAC1280 primary screen with protease, 5 µM compound, replicate 1) of 3.994 and a Replicate_2 (sheet LOPAC_screen_w_protease, LOPAC1280 primary screen with protease, 5 µM compound, replicate 2) of 4.765.
For `COC(=O)c1c(C)[nH]c(C)c1C(=O)c1ccccc1Cc1ccccc1` [FPL 64176], the mean [4] was 0.1984, the Replicate_1 [5] was 1.679 and the Replicate_2 [6] was -1.282.
`COc1ccccc1NC(=O)Nc1nc(-c2cccnc2)nc2ccccc12` [VUF 5574] showed a mean [1] of 2.164, a Replicate_1 [2] of 1.496 and a Replicate_2 [3] of 2.8319.
`CN1CCN(CCCN2c3ccccc3Sc3ccc(Cl)cc32)CC1` [Prochlorperazine dimaleate] was tested, and the inhibition at 5 µM (sheet LOPAC_screen_w_protease, primary screen with protease, mean of two replicates, read-out: mean) was 2.43%, the inhibition at 5 µM (sheet LOPAC_screen_w_protease, primary screen with protease, replicate 1, read-out: Replicate_1) was 4.42% and the inhibition at 5 µM (sheet LOPAC_screen_w_protease, primary screen with protease, replicate 2, read-out: Replicate_2) was 0.439%.
In the case of `N[C@H](CCCCCP(=O)(O)O)C(=O)O` [D(-)-2-Amino-7-phosphonoheptanoic acid], the mean [7] is reported as 3.051, the Replicate_1 [8] is reported as 3.469 and the Replicate_2 [9] is reported as 2.633.
For `Cc1cc(N)c2ccccc2[n+]1CCCCCCCCCCCCCC[n+]1c(C)cc(N)c2ccccc21.[I-].[I-]` [Dequalinium analog, C-14 linker], the “mean (LOPAC screen with protease)” value [10] was 11.1281, the “Replicate_1 (LOPAC screen with protease)” value [11] was 10.1675 and the “Replicate_2 (LOPAC screen with protease)” value [12] was 12.0887.
`CC(N)c1cccc(Cl)c1Cl.Cl` (racemic) was tested, and the mean [1] was 2.411, the Replicate_1 [2] was 4.03 and the Replicate_2 [3] was 0.7923.
`Cl.NCC(O)C1CCCCCCC1` (centres unmarked) was tested, and the mean (sheet LOPAC_screen_w_protease, LOPAC1280 at 5 µM, mean of two replicates) was 1.1388, the Replicate_1 (sheet LOPAC_screen_w_protease, LOPAC1280 at 5 µM, replicate 1) was 2.0547 and the Replicate_2 (sheet LOPAC_screen_w_protease, LOPAC1280 at 5 µM, replicate 2) was 0.2229.
`Cc1cccc(C)c1OCC(N)C(C)C.I` (stereo not drawn) [R(-)-Me5] was tested, and the “mean (LOPAC screen with protease)” value [10] was 9.695, the “Replicate_1 (LOPAC screen with protease)” value [11] was 9.8488 and the “Replicate_2 (LOPAC screen with protease)” value [12] was 9.541.
`CC(C)CC(N)CSSCC(N)CC(C)C.Cl.Cl` [L-Leucinethiol, oxidized dihydrochloride] was tested, and the “mean (LOPAC screen with protease)” value [10] was 45.1144, the “Replicate_1 (LOPAC screen with protease)” value [11] was 48.0888 and the “Replicate_2 (LOPAC screen with protease)” value [12] was 42.1401.
Molecule `CC1(C)CCC(NC(=O)[C@@H](N)CCC(=O)O)CC1` [CR 2249] has an inhibition at 5 µM (sheet LOPAC_screen_w_protease, LOPAC1280 primary screen with protease, 5 µM compound, mean of the two replicates, read-out: mean) of 5.2%, an inhibition at 5 µM (sheet LOPAC_screen_w_protease, LOPAC1280 primary screen with protease, 5 µM compound, replicate 1, read-out: Replicate_1) of 4.44% and an inhibition at 5 µM (sheet LOPAC_screen_w_protease, LOPAC1280 primary screen with protease, 5 µM compound, replicate 2, read-out: Replicate_2) of 5.96%.
With `Clc1cnc(Oc2ccc(Oc3ncc(Cl)cc3Cl)cc2)c(Cl)c1` [TCPOBOP] the mean [1] was 2.32, the Replicate_1 [2] was 5.456 and the Replicate_2 [3] was -0.8151.
With `CCc1c(C(=O)OC)ncc2[nH]c3cc(OC)c(OC)cc3c12` the “mean (LOPAC_screen_w_protease)” value (LOPAC1280 primary screen with protease, 5 µM compound, mean of the two replicates) was 2.118, the “Replicate_1 (LOPAC_screen_w_protease)” value (LOPAC1280 primary screen with protease, 5 µM compound, replicate 1) was 4.217 and the “Replicate_2 (LOPAC_screen_w_protease)” value (LOPAC1280 primary screen with protease, 5 µM compound, replicate 2) was 0.01945.
In the case of `CC(C)c1ccc2c(c1)c(SC(C)(C)C)c(CC(C)(C)C(=O)O)n2Cc1ccc(Cl)cc1` [MK-886], the mean (sheet LOPAC_screen_w_protease, primary screen of LOPAC1280 at 5 µM with protease, mean of the two replicates) is reported as 3.5784, the Replicate_1 (sheet LOPAC_screen_w_protease, primary screen of LOPAC1280 at 5 µM with protease, replicate 1) is reported as 4.4392 and the Replicate_2 (sheet LOPAC_screen_w_protease, primary screen of LOPAC1280 at 5 µM with protease, replicate 2) is reported as 2.7176.
In the case of `COc1ccc(CCNC[C@H](O)c2ccc(O)cc2)cc1OC` [R(-)-Denopamine], the mean [4] is reported as -0.5647, the Replicate_1 [5] is reported as -0.1092 and the Replicate_2 [6] is reported as -1.02.
For `Cn1c(=O)c2[nH]c(-c3ccc(S(=O)(=O)O)cc3)nc2n(C)c1=O` [8-(p-Sulfophenyl)theophylline], the mean [7] was 3.141, the Replicate_1 [8] was 2.844 and the Replicate_2 [9] was 3.439.
In the case of `Nc1ncnc2c1ncn2[C@@H]1O[C@H](CO)[C@@H](O)[C@H]1O` [Adenosine], the inhibition at 5 µM (read-out: Replicate_1) is reported as 1.26%, the inhibition at 5 µM (read-out: Replicate_2) is reported as 3.55% and the inhibition at 5 µM (read-out: mean) is reported as 2.4%.
In the case of `Cl.Nc1c2c(nc3ccccc13)CCCC2`, the Replicate_1 is reported as 1.645, the Replicate_2 is reported as 0.8036 and the mean is reported as 1.2241.
